Reference: patent publication US11466044B2 (WAYNE STATE UNIVERSITY, priority 2017, dated 2022)
≈ marks a conversion by molar mass, not a printed value. Read-outs that look alike come from different tables or passages of the source.

Columns and labels:
E coli wild type = experiment: MIC by broth microdilution, wild type E coli; format: cell-based; conditions: for MIC: Escherichia coli
P aeruginosa = experiment: MIC by broth microdilution, P aeruginosa isolates; format: cell-based, Pseudomonas aeruginosa
[1] = tested on: E coli carrying specific resistance determinants; experiment: MIC by broth microdilution, E coli carrying specific resistance determinants; format: cell-based; conditions: for MIC: Escherichia coli
[2] = tested on: Klebsiella pneumonia AG215; experiment: MIC by broth microdilution, Klebsiella pneumonia; format: cell-based; conditions: strain AG215 Klebsiella pneumonia
[3] = tested on: Acinetobacter baumannii pittii AG225; experiment: MIC by broth microdilution, Acinetobacter baumannii; format: cell-based; conditions: strain AG225 Acinetobacter baumannii pittii
[4] = tested on: Enterobacter cloacae AG290; experiment: MIC by broth microdilution, Enterobacter cloacae; format: cell-based; conditions: strain AG290 Enterobacter cloacae
N. gonorrhoeae = experiment: Disk diffusion, N. gonorrhoeae; format: cell-based
M. smegmatis SZ380 = experiment: MIC by broth microdilution, M. smegmatis
MRSA = experiment: MIC by broth microdilution, MRSA isolates; format: cell-based; conditions: Table 1 (Example 2)

## CCC[C@@H]1C(CO)O[C@H](O[C@@H]2C(N)C[C@@H](N)C(O)[C@H]2O[C@@H]2O[C@H](CO)[C@H](O[C@H]3OC(CN)[C@@H](O)C(O)C3N)C2O)[C@@H](N)C1O (some centres unmarked) [Compound 079]
E coli wild type; ATCC25922, strain AG212 E. coli (ATCC25922), read-out: MIC AG212 E. coli
  MIC: 1 µg/mL (≈ 1.56 µM)
E coli wild type; clinical isolate AG160 WT, Table 2 (Example 4), read-out: MIC AG160 E. coli WT
  MIC: 1 µg/mL (≈ 1.56 µM)
E coli wild type; engineered strain pH430 WT, Table 2 (Example 4), read-out: MIC pH430 E. coli WT
  MIC: 0.5 µg/mL (≈ 0.779 µM)
P aeruginosa; strain AG220 Pseudomonas aeruginosa ATCC27853, read-out: MIC AG220 P. aerugin
  MIC: 4 µg/mL (≈ 6.23 µM)
[1]; read-out: MIC AG037 E. coli APH(3′)-III
  MIC: > 64 µg/mL
[1]; read-out: MIC AG163 E. coli APH(3′)-I
  MIC: > 64 µg/mL
[1]; read-out: MIC AG166 E. coli APH(3′)-II
  MIC: 1 to 2 µg/mL (≈ 1.56 to 3.12 µM)
[1]; read-out: MIC pH421 E. coli APH(3′)-I
  MIC: > 32 µg/mL
[1]; read-out: MIC pH422 E. coli APH(3′)-II
  MIC: 4 µg/mL (≈ 6.23 µM)
[1]; read-out: MIC pH423 E. coli APH(3′)-VI
  MIC: 1 µg/mL (≈ 1.56 µM)
[2]; Klebsiella pneumoniae, read-out: MIC AG215 K. pneumon
  MIC: 0.5 µg/mL (≈ 0.779 µM)
[3]
  MIC: 1 to 2 µg/mL (≈ 1.56 to 3.12 µM)
[4]; read-out: MIC AG290 E. cloacae
  MIC: 0.5 µg/mL (≈ 0.779 µM)
N. gonorrhoeae; Neisseria gonorrhoeae
  zone of inhibition at 25 nmol/disc: 16 mm
M. smegmatis SZ380; Mycolicibacterium smegmatis, SZ380, read-out: MIC SZ380 M. smegmatis, strain SZ380 Mycobacterium smegmatis
  MIC: 0.5 µg/mL (≈ 0.779 µM)

## CC(N)C1OC(OC2C(N)CC(N)C(O)C2OC2OC(CO)C(OC3OC(CN)C(O)C(O)C3N)C2O)C(N)C(O)C1O (centres unmarked) [Compound 166]
MRSA; strain AG38
  MIC50 MRSA AG38: 2 µg/mL (≈ 3.18 µM)
MRSA; strain AG39
  MIC50 MRSA AG39: >128 µg/mL
MRSA; strain AG42
  MIC50 MRSA AG42: >128 µg/mL
MRSA; strain AG44
  MIC50 MRSA AG44: 1 µg/mL (≈ 1.59 µM)
E coli wild type; BM13 (AG06) wt, Table 2A (Example 2)
  MIC50 E coli BM13 (AG06) wt: 0.5 to 1 µg/mL
E coli wild type; pH430 WT, Table 2B (Example 2)
  MIC50 E coli pH430 WT: 0.5 μg/ml
E coli wild type; strain AG01, Table 1 (Example 2)
  MIC50 E coli AG01: 2 µg/mL (≈ 3.18 µM)
E coli wild type; strain AG03, Table 1 (Example 2)
  MIC50 E coli AG03: 2 µg/mL (≈ 3.18 µM)
E coli wild type; strain AG55, Table 1 (Example 2)
  MIC50 E coli AG55: 2 µg/mL (≈ 3.18 µM)
E coli wild type; strain AG212 E. coli (ATCC25922)
  MIC AG212 E. coli: 1 µg/mL (≈ 1.59 µM)
P aeruginosa; strain AG31, Table 1 (Example 2)
  MIC50 P aeruginosa AG31: ≥128 µg/mL
P aeruginosa; strain AG32, Table 1 (Example 2)
  MIC50 P aeruginosa AG32: 128 µg/mL (≈ 204 µM)
P aeruginosa; strain AG33, Table 1 (Example 2)
  MIC50 P aeruginosa AG33: ≥128 µg/mL
P aeruginosa; strain AG86, Table 1 (Example 2)
  MIC50 P aeruginosa AG86: 16 µg/mL (≈ 25.5 µM)
P aeruginosa; strain AG220 Pseudomonas aeruginosa ATCC27853
  MIC AG220 P. aerugin: >32 µg/mL
[1]; AG09 AAC(6′), Table 2A (Example 2)
  MIC50 E coli AG09 AAC(6′): 0.5 µg/mL (≈ 0.795 µM)
[1]; Table 2A (Example 2)
  MIC50 E coli AG036 ANT(4′,4″): 16 µg/mL (≈ 25.5 µM)
[1]; Table 2B (Example 2)
  MIC50 E coli AG036 ANT(4′,4″): 16 µg/mL (≈ 25.5 µM)
[1]; AG037 APH(3′)-III, Table 2B (Example 2)
  MIC50 E coli AG037 APH(3′)-III: >64 µg/mL
[1]; AG037 APH(3′,5″), Table 2A (Example 2)
  MIC50 E coli AG037 APH(3′,5″): >64 µg/mL
[1]; AG103 armA, Table 2B (Example 2)
  MIC50 E coli AG103 armA: 1 µg/mL (≈ 1.59 µM)
[1]; pH414 AAC(6′)-I, Table 2B (Example 2)
  MIC50 E coli pH414 AAC(6′)-I: 0.5 μg/ml
[1]; pH415 AAC(6′)-II, Table 2B (Example 2)
  MIC50 E coli pH415 AAC(6′)-II: 1-2 μg/ml
[1]; pH421 APH(3′)-I, Table 2B (Example 2)
  MIC50 E coli pH421 APH(3′)-I: >32 μg/ml
[1]; pH422 APH(3′)-II, Table 2B (Example 2)
  MIC50 E coli pH422 APH(3′)-II: >32 μg/ml
[1]; pH423 APH(3)-VI, Table 2B (Example 2)
  MIC50 E coli pH423 APH(3)-VI: >32 μg/ml
[1]; pH432 ANT(4′), Table 2B (Example 2)
  MIC50 E coli pH432 ANT(4′): 0.5 μg/ml
[2]
  MIC AG215 K. pneumon: 0.25 to 0.5 µg/mL
[3]
  MIC AG225 A. baumannii: 1 µg/mL (≈ 1.59 µM)
[4]
  MIC AG290 E. cloacae: 0.5 µg/mL (≈ 0.795 µM)
N. gonorrhoeae; 25 nmol
  Disk diffusion 25 nmol N. gonorrhoeae: 12 mm
M. smegmatis SZ380; strain SZ380 Mycobacterium smegmatis
  MIC SZ380 M. smegmatis: 0.125 to 0.25 µg/mL
